# In patent US7582786B2, “Synthetic catalytic free radical scavengers useful as antioxidants for prevention and therapy of disease” (Eukarion Inc., priority 1996, dated 2009):
# Columns and labels:
# [1] = SOD activity, inhibition of cytochrome C reduction by xanthine plus xanthine oxidase (Example 1); assay type: biochemical; conditions: Example 1, cytochrome C reduction
# Method: The SOD activity of the compounds was determined by evaluating the inhibition of the reduction of cytochrome C produced by the oxygen free radical generating system, xanthine plus xanthine oxidase. Cytochrome C reduction is monitored spectrophotometrically at 550 nm according to the method described in Darr et al. (1987) Arch. Biochem. Biophys. 258: 351, incorporated herein by reference. The concentration of xanthine oxidase is adjusted such that it produces a rate of reduction of cytochrome C at 550 nm of 0.025 absorbance unit per minute. Under these conditions, the amount of SOD activity required to inhibit the rate of cytochrome C reduction by 50 percent (i.e., to a rate of 0.0125 absorbance unit per minute) is defined as one unit of activity. Salen-metal complexes are identified as antioxidants if they have at least 0.1 unit of activity at a concentration of 1 mM under these standard assay conditions.
# [2] = Catalase activity, decomposition of hydrogen peroxide monitored at 240 nm (Example 1); assay type: biochemical; conditions: Example 1, H2O2 decomposition at 240 nm
# Method: Catalase activity was measured using a spectrophotometric method in which the decomposition of hydrogen peroxide is monitored at 240 nm according to the method of Aebi et al. (1984) Methods Enzymol. 105: 121, incorporated herein by reference. One unit of catalase activity is defined as the amount of enzyme (or salen-metal complex) required to decompose 1 μmole of hydrogen peroxide in one minute.
# [3] = Peroxidase activity, H2O2-dependent oxidation of ABTS (Example 2); assay type: biochemical; conditions: for Peroxidase rate: 10 μM salen manganese complex, 0.2 mM H2O2; for Peroxidase: relative to C7 (C7 = 100)
# Outline: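 ABTS oxidation by salen manganese complex (10 μM) with 0.2 mM H2O2 in 50 mM sodium phosphate pH 8.1 (or pH 6.0/7.1 where indicated), 0.9% NaCl, 0.5 mM ABTS, 27±0.2 °C. Oxidized ABTS read spectrophotometrically at 740 or 500 nm and quantified from Δε740 20,300 or Δε500 3400 M^−1cm^−1.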
# [4] = Peroxidase activity with t-BHP as substrate, ABTS oxidation; assay type: biochemical
# Method: Peroxidase activity was assayed by monitoring the hydrogen peroxide-dependent oxidation of 2,2′-azino-bis(3-ethylbenzthiazoline-6) sulfonic acid (ABTS) spectrophotometrically. Standard assay mixtures consisted of 50 mM sodium phosphate, pH 8.1, 0.9% sodium chloride, 0.5 mM ABTS, and H2O2 and salen manganese complex as indicated. Where indicated, 50 mM sodium phosphate buffers of pH 6.0 or pH 7.1 were substituted. Assays were conducted at 27±0.2° C. ABTS oxidation was monitored at 740 or 500 nm to eliminate interference by the salen manganese complexes, many of which absorb in the vicinity of the λmax of oxidized ABTS, and to avoid absorbance values that exceeded the linear range of the spectrophotometer. The amount of oxidized ABTS was estimated using an Δε740 of 20,300 M^−1cm^−1 or an Δε500 of 3400 M^−1cm^−1 calculated based upon the published molar extinction coefficient oat 405 nm (36,800).
# (In comparison, horseradish peroxidase utilized t-BHP with an ABTS oxidation rate that was about 5.4% of the rate with H2O2).
# [5] = test system: Human dermal fibroblasts (HF cells); test: Cell protection assay, tert-butylhydroperoxide (t-BHP) toxicity, XTT; assay type: cell-based; conditions: for Cell viability, absorbance at 490 nm uncorrected for blank: t-BHP 0.5 mM
# Method: (§1) Human dermal fibroblasts (HF cells) were obtained from the American type tissue Culture Collection at passage 1 and cultured and propagated in a medium (HF medium) consisting of Dulbecco's Modified Eagle's Medium with 4.5 g/l D-glucose, 10% calf serum 4 mM glutamine, 50 units/ml penicillin, and 50 μg/ml streptomycin in a 37° C. humidified incubator equilibrated with 5% CO2. Cells were used at passages 5 or 6 for experiments. For cell protection assays, HF cells were seeded at a density of about 15,000 cells per cm2 onto 96-well culture plates and allowed to grow to confluence. To assess protection tert-butylhydroperoxide (t-BHP) toxicity, confluent cell layers were first treated with the indicated concentrations of test compounds dissolved in HF medium for 18 hr. The medium was then replaced with fresh medium containing test compounds and 0.5 mM tert-butylhydroperoxide (t-BHP) and cells were incubated for another 18 hr. The medium was then removed and replaced with fresh HF medium (100 μl per well) without test compounds or t-BHP. Fifty μl of XTT reagent (Boeringer Mannheim, Inc.), prepared as described by the manufacturer, was then added to each well and the plates returned to the incubator. After 2 hr., the absorbance at 490 nm was measured in a BioRad (Richmond, Calif.) Model 3550 plate-reader, using a reference wavelength of 655 nm. Control cells that had not been exposed to test compounds or toxic agents were included among the samples treated with XTT reagent. Absorbance measurements for blank wells, containing HF medium and XTT reagent but no cells, were also determined. To analyze protection from glucose/glucose oxidase toxicity, confluent cell layers were incubated with HF medium containing glucose oxidase (0.019 units/ml) along with test compounds, as indicated, for 18 hr in the tissue culture incubator. Fresh HF medium was then added and cell viability assessed using the XTT reagent as described above. For both these models, concentrations of toxic agents were selected that were reproducibly completely lethal. Cytotoxicity assessments were routinely confirmed by visual inspection of the cell layers prior to addition of the XTT reagent.
# [6] = Catalase activity, conversion of H2O2 to oxygen, polarographic oxygen electrode (Example 2); assay type: biochemical
# Outline: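 Clark-type oxygen electrode at 25 °C in 50 mM sodium phosphate pH 8.1, 0.9% NaCl, with 10 μM salen-manganese complex and 10 mM H2O2. Initial rates from slope of first ~5 s, corrected for H2O2-alone rate; endpoint O2 as maximal minus pre-substrate baseline.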
# [7] = test system: Human dermal fibroblasts (HF cells); test: Cell protection assay, glucose/glucose oxidase toxicity, XTT; assay type: cell-based
# Method: as §1
# Catalase and peroxidase activities were assayed as described in Example 2. Catalase assays contained 10 μM salen-manganese complex and 10 mM hydrogen peroxide. Peroxidase assays contained 10 μM salen-manganese complex and 0.2 mM hydrogen peroxide. Glucose-glucose oxidase toxicity assays were performed using human dermal fibroblasts as described in Example 2.
# [8] = SOD activity, xanthine/xanthine oxidase with cytochrome C as acceptor (Example 2); assay type: biochemical; conditions: relative to C7 (C7 = 100)
# Outline: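 Superoxide was generated by 120 µM xanthine and 0.2 U/ml xanthine oxidase in 50 mM sodium phosphate pH 7.8 at 27 °C, with salen manganese compounds at ≥4 concentrations in duplicate.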
# [9] = test system: brain homogenates; test: Iron-induced lipid peroxidation in brain homogenates (MDA); assay type: biochemical, rat
# Method: Lipid peroxidation was induced by incubating a mixture consisting of 0.25 ml homogenate, 0.25 ml ASCF with test compounds, and 10 μM FeCl2 for 1 hr at 35° C. under an atmosphere equilibrated with O2:CO2(95:5). Following the incubation, 0.1 ml of the sample was extracted with trichloroacetic acid and analyzed for thiobarbituric acid reactive material as described previously, using authentic malonyldialdehyde (MDA) as a standard.
# [10] = test system: brain microsomes; test: Lipid peroxidation induced in brain microsomes by iron and ascorbate (MDA)
# Description: A series of salen-metal complexes were synthesized and their catalytic activities determined. […] FIGS. 24A-24H show structural formulae of further salen-metal compounds which were synthesized and evaluated.
# [11] = 10 μM salen manganese complex, 10 mM H2O2
SOD Activity [1] [units/mM],Catalase Activity [2] [units/mM],Compound,Peroxidase rate [3] [μM ABTS oxidized/min],Peroxidase [3],peroxidase rate with t-BHP relative to C32 [4],"Cell viability, absorbance at 490 nm uncorrected for blank ([5]; 2.5 μM)","Cell viability, absorbance at 490 nm uncorrected for blank ([5]; 5 μM)","Cell viability, absorbance at 490 nm uncorrected for blank ([5]; 10 μM)","Cell viability, absorbance at 490 nm uncorrected for blank ([5]; 20 μM)","Cell viability, absorbance at 490 nm uncorrected for blank ([5]; 40 μM)",synergistic toxicity with t-BHP ([5]; 80 μM),"Cell viability, absorbance at 490 nm uncorrected for blank ([5]; 80 μM)","Catalase rate [6, 11] [μM O2/min]","Endpoint [6, 11] [maximal μM O2]",Catalase endpt. ([6]; relative to C7 (C7 = 100)),Catalase rate ([6]; relative to C7 (C7 = 100)),protection against glucose and glucose oxidase (in words) [7],SOD [8],"MDA levels, percent of control ([9]; 1 μM) [%]","MDA levels, percent of control ([9]; 5 μM) [%]",other results
69,179,CC(C)(C)c1cc2c(c(C(C)(C)C)c1)[O][Mn]([Cl])[O]c1c(cc(C(C)(C)C)cc1C(C)(C)C)C=NC1CCCCC1N=C2 (centres unmarked) [Compound C10],,,,,,,,,,,,,,,,,,,
101,46,CC(C)(C)c1cc(Cl)cc2c1[O][Mn]([Cl])[O]c1c(cc(Cl)cc1C(C)(C)C)C=NC1CCCCC1N=C2 (centres unmarked) [Compound C11],,,,,,,,,,,,,,,,,,,
4397,144,COc1cc2c(c(C(C)(C)C)c1)[O][Mn]([Cl])[O]c1c(cc(OC)cc1C(C)(C)C)C=NC1CCCCC1N=C2 (centres unmarked) [Compound C12],,,,,,,,,,,,,,,,,,,
,,CC(=O)[O][Mn]1[O]c2c(F)cccc2C=NCCN=Cc2cccc(F)c2[O]1 [Compound C36],22.2 ± 0.8,129,about twice as fast as C32,0.28 ± 0.01,0.29 ± 0.01,1.13 ± 0.05,1.44 ± 0.04,1.28 ± 0.45,possible synergistic toxicity,0.79 ± 0.34,167.5 ± 9.8,27.9 ± 2.3,104,128,about equally as effective as C7,104,95,37,"MDA levels, percent of control ([9]; 10 μM): 16%; MDA levels, percent of control ([9]; 25 μM): 4%"
,,Fc1cccc2c1[O][Mn]([Cl])[O]c1c(F)cccc1C=NCCN=C2 [Compound C37],23.3 ± 0.6,92,about twice as fast as C32,0.28 ± 0.01,0.28 ± 0.01,1.20 ± 0.06,1.42 ± 0.05,1.53 ± 0.02,possible synergistic toxicity,1.20 ± 0.02,182.6 ± 26.8,28.3 ± 0.5,104,117,about equally as effective as C7,115,94,43,"MDA levels, percent of control ([9]; 10 μM): 25%; MDA levels, percent of control ([9]; 25 μM): 8%"
,,Vitamin E,,,,,,,,,,,,,,,,,,,inhibition of lipid peroxidation in brain microsomes [10]: inhibition of lipid peroxidation
